Values of other authors as cited in patent publication US20170071955A1, “METHOD OF STABILIZING WEIGHT AFTER A WEIGHT-LOSS DIET USING PHYTOECDYSONES” (BIOPHYTIS SA, priority 2011, published 2017).

Details: mammals on a fattening hypercaloric diet

CC(C)(O)CC[C@@H](O)[C@](C)(O)[C@H]1CC[C@@]2(O)C3=CC(=O)[C@@H]4C[C@@H](O)[C@@H](O)C[C@]4(C)[C@H]3CC[C@]12C [20-hydroxyecdysone]
effect on body fat: reduce the increase of body fat
